From patent publication US20020051978A1, “Methods and compositions for the identification, assessment, prevention and therapy of human cancers” (priority 2000, published 2002)
Structures can show the parent of a compound that is named as a salt. Where two headings read alike, the source gives them in different places.

Legend:
[1] = test system: 60 cancer cell lines (NCI 60 cancer cell line series); test: NCI-DTP in vitro cancer screen, sulforhodamine B (SRB) growth inhibition, 48 hour exposure; assay type: cell-based, human; set-up: key to sensitivity class Ovarian OVCAR-8 CL6005 / sensitivity class Ovarian SK-OV-3 CL6011 / sensitivity class Prostate DU-145 CL11003 / sensitivity class NSCLC NCI-H522 CL1003 / sensitivity class Ovarian IGROV1 CL6010 / sensitivity class Ovarian OVCAR-4 CL6002 / sensitivity class Prostate PC-3(I) CL11001 / sensitivity class Renal A498 CL9013 / sensitivity class Renal SN12C CL9008: sensitivity class: 1 = Low, 2 = Medium, 3 = High
Procedure, shortened: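 Sixty NCI-DTP cancer lines plated at line-specific densities, dosed on day 1 in duplicate with 5 concentrations at ten-fold intervals. After 48 h exposure, cell mass read by SRB staining; GI50 (50% growth inhibition) taken from dose-response curves and expressed as -log GI50.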

[2] = test system: 60 cancer cell lines (NCI 60 cancer cell line series); conditions: cited from earlier work

CC[C@]1(O)C[C@H]2CN(CCc3c([nH]c4ccccc34)[C@@](C(=O)OC)(c3cc4c(cc3OC)N(C=O)[C@H]3[C@@](O)(C(=O)OC)[C@H](OC(C)=O)[C@]5(CC)C=CCN6CC[C@]43[C@@H]65)C2)C1 [Vincristine sulfate]
2: classification of cell line as Low(1), Medium(2) or High(3) sensitivity to compound ([1]; Breast BT-549 (CL5013)) | classification of cell line as Low(1), Medium(2) or High(3) sensitivity to compound ([1]; Breast HS-578T CL5006) | classification of cell line as Low(1), Medium(2) or High(3) sensitivity to compound ([1]; Breast MCF7(I) (CL5001)) | classification of cell line as Low(1), Medium(2) or High(3) sensitivity to compound ([1]; Breast MCF7/ADRr (CL5002)) | classification of cell line as Low(1), Medium(2) or High(3) sensitivity to compound ([1]; Breast MDA-MB-231 CL5005) | classification of cell line as Low(1), Medium(2) or High(3) sensitivity to compound ([1]; Breast MDA-MB-435 (CL5011)) | classification of cell line as Low(1), Medium(2) or High(3) sensitivity to compound ([1]; Breast T-47D (CL5014)) | classification of cell line as Low(1), Medium(2) or High(3) sensitivity to compound ([1]; CNS SNB-19 (CL12002)) | classification of cell line as Low(1), Medium(2) or High(3) sensitivity to compound ([1]; CNS SNB-75(I) CL12005) | classification of cell line as Low(1), Medium(2) or High(3) sensitivity to compound ([1]; CNS U251(I) CL12009) | classification of cell line as Low(1), Medium(2) or High(3) sensitivity to compound ([1]; Colon COLO-250 CL4010) | classification of cell line as Low(1), Medium(2) or High(3) sensitivity to compound ([1]; Colon HCC-2998 (CL4002)) | classification of cell line as Low(1), Medium(2) or High(3) sensitivity to compound ([1]; Colon HCT-15 CL4015) | classification of cell line as Low(1), Medium(2) or High(3) sensitivity to compound ([1]; Colon HCT-116 (CL4003)) | classification of cell line as Low(1), Medium(2) or High(3) sensitivity to compound ([1]; Melanoma M14 (CL10014)) | classification of cell line as Low(1), Medium(2) or High(3) sensitivity to compound ([1]; Melanoma MALME-3M CL10002) | classification of cell line as Low(1), Medium(2) or High(3) sensitivity to compound ([1]; Melanoma SK-MEL-2 (CL10005)) | classification of cell line as Low(1), Medium(2) or High(3) sensitivity to compound ([1]; Melanoma UACC-62 (CL10020)) | classification of cell line as Low(1), Medium(2) or High(3) sensitivity to compound ([1]; Melanoma UACC-257 (CL10021)) | classification of cell line as Low(1), Medium(2) or High(3) sensitivity to compound ([1]; NSCLC A549/ATCC (CL1004)) | classification of cell line as Low(1), Medium(2) or High(3) sensitivity to compound ([1]; NSCLC HOP-62 (CL1026)) | classification of cell line as Low(1), Medium(2) or High(3) sensitivity to compound ([1]; NSCLC HOP-92 (CL1029)) | classification of cell line as Low(1), Medium(2) or High(3) sensitivity to compound ([1]; NSCLC NCI-H226 CL1013) | sensitivity class NSCLC NCI-H332M CL1017 ([1]; cell line NSCLC NCI-H332M, CL1017) | sensitivity class Ovarian OVCAR-4 CL6002 ([1]; cell line Ovarian OVCAR-4, CL6002) | sensitivity class Ovarian SK-OV-3 CL6011 ([1]; cell line Ovarian SK-OV-3, CL6011) | sensitivity class Prostate DU-145 CL11003 ([1]; cell line Prostate DU-145, CL11003) | sensitivity class Prostate PC-3(I) CL11001 ([1]; cell line Prostate PC-3(I), CL11001) | sensitivity class Renal 786-O CL9018 ([1]; cell line Renal 786-O, CL9018) | sensitivity class Renal ACHN CL9023 ([1]; cell line Renal ACHN, CL9023) | sensitivity class Renal CAKI-1 CL9015 ([1]; cell line Renal CAKI-1, CL9015) | sensitivity class Renal RXF-393 CL9016 ([1]; cell line Renal RXF-393, CL9016) | sensitivity class Renal SN12C CL9008 ([1]; cell line Renal SN12C, CL9008)
6.4: -Log (GI50) ([2]; Prostate DU-145 CL11003)
7.0: -Log (GI50) ([2]; CNS SF-295 CL12015) | -Log (GI50) ([2]; CNS SF-539 CL12016) | -Log (GI50) ([2]; Colon HT29(I) CL4001) | -Log (GI50) ([2]; Colon SW-620 (CL4009)) | -Log (GI50) ([2]; Leukemia CCRF-CEM(I) (CL7003)) | -Log (GI50) ([2]; Leukemia HL-60(I) (CL7008)) | -Log (GI50) ([2]; Leukemia K562(I) CL7005) | -Log (GI50) ([2]; Leukemia SR CL7019) | -Log (GI50) ([2]; Melanoma LOX IMVI CL10001) | -Log (GI50) ([2]; Melanoma SK-MEL-5 (CL10007)) | -Log (GI50) ([2]; NSCLC NCI-H23(I) CL1001) | -Log (GI50) ([2]; NSCLC NCI-H460 CL1021) | -Log (GI50) ([2]; Ovarian IGROV1 CL6010) | -Log (GI50) ([2]; Ovarian OVCAR-3 CL6001) | -Log (GI50) ([2]; Ovarian OVCAR-8 CL6005) | -Log (GI50) ([2]; Renal A498 CL9013)
5.9: -Log (GI50) ([2]; Breast BT-549 (CL5013))
6.7: -Log (GI50) ([2]; Breast MDA-MB-435 (CL5011))
6.5: -Log (GI50) ([2]; Breast HS-578T CL5006)
6.3: -Log (GI50) ([2]; CNS SNB-75(I) CL12005) | -Log (GI50) ([2]; Ovarian OVCAR-4 CL6002)
6.8: -Log (GI50) ([2]; CNS SF-268 CL12014) | -Log (GI50) ([2]; Melanoma UACC-257 (CL10021)) | -Log (GI50) ([2]; NSCLC HOP-62 (CL1026)) | -Log (GI50) ([2]; Renal ACHN CL9023)
6.9: -Log (GI50) ([2]; Breast MCF7(I) (CL5001)) | -Log (GI50) ([2]; CNS SNB-19 (CL12002)) | -Log (GI50) ([2]; CNS U251(I) CL12009) | -Log (GI50) ([2]; Colon COLO-250 CL4010) | -Log (GI50) ([2]; Colon HCC-2998 (CL4002)) | -Log (GI50) ([2]; Colon HCT-15 CL4015) | -Log (GI50) ([2]; Colon HCT-116 (CL4003)) | -Log (GI50) ([2]; Colon KM12 (CL4017)) | -Log (GI50) ([2]; Leukemia MOLT-4 (CL7006)) | -Log (GI50) ([2]; Leukemia RPMI-8226(I) (CL7010)) | -Log (GI50) ([2]; Melanoma M14 (CL10014)) | -Log (GI50) ([2]; Melanoma SK-MEL-2 (CL10005)) | -Log (GI50) ([2]; Melanoma UACC-62 (CL10020)) | -Log (GI50) ([2]; NCSLC NCI-H522 CL1003) | -Log (GI50) ([2]; NSCLC A549/ATCC (CL1004)) | -Log (GI50) ([2]; NSCLC HOP-92 (CL1029)) | -Log (GI50) ([2]; NSCLC NCI-H226 CL1013) | -Log (GI50) ([2]; NSCLC NCI-H332M CL1017) | -Log (GI50) ([2]; Renal 786-O CL9018) | -Log (GI50) ([2]; Renal CAKI-1 CL9015) | -Log (GI50) ([2]; Renal RXF-393 CL9016) | -Log (GI50) ([2]; Renal SN12C CL9008)
4.7: -Log (GI50) ([2]; Ovarian OVCAR-5 CL6003)
6.1: -Log (GI50) ([2]; Breast MCF7/ADRr (CL5002))
5.7: -Log (GI50) ([2]; NSCLC EKVX (CL1008)) | -Log (GI50) ([2]; Renal TK10 CL9024) | -Log (GI50) ([2]; Renal UO-31 CL9004)
6.0: -Log (GI50) ([2]; Melanoma SK-MEL-28 (CL10008))
6.6: -Log (GI50) ([2]; Breast MDA-MB-231 CL5005) | -Log (GI50) ([2]; Breast MDA-N CL5012) | -Log (GI50) ([2]; Melanoma MALME-3M CL10002) | -Log (GI50) ([2]; Ovarian SK-OV-3 CL6011) | -Log (GI50) ([2]; Prostate PC-3(I) CL11001)
1: classification of cell line as Low(1), Medium(2) or High(3) sensitivity to compound ([1]; Breast MDA-N CL5012) | classification of cell line as Low(1), Medium(2) or High(3) sensitivity to compound ([1]; Melanoma SK-MEL-28 (CL10008)) | classification of cell line as Low(1), Medium(2) or High(3) sensitivity to compound ([1]; NSCLC EKVX (CL1008)) | sensitivity class Ovarian OVCAR-5 CL6003 ([1]; cell line Ovarian OVCAR-5, CL6003) | sensitivity class Renal TK10 CL9024 ([1]; cell line Renal TK10, CL9024) | sensitivity class Renal UO-31 CL9004 ([1]; cell line Renal UO-31, CL9004)
3: classification of cell line as Low(1), Medium(2) or High(3) sensitivity to compound ([1]; CNS SF-268 CL12014) | classification of cell line as Low(1), Medium(2) or High(3) sensitivity to compound ([1]; CNS SF-295 CL12015) | classification of cell line as Low(1), Medium(2) or High(3) sensitivity to compound ([1]; CNS SF-539 CL12016) | classification of cell line as Low(1), Medium(2) or High(3) sensitivity to compound ([1]; Colon HT29(I) CL4001) | classification of cell line as Low(1), Medium(2) or High(3) sensitivity to compound ([1]; Colon KM12 (CL4017)) | classification of cell line as Low(1), Medium(2) or High(3) sensitivity to compound ([1]; Colon SW-620 (CL4009)) | classification of cell line as Low(1), Medium(2) or High(3) sensitivity to compound ([1]; Leukemia CCRF-CEM(I) (CL7003)) | classification of cell line as Low(1), Medium(2) or High(3) sensitivity to compound ([1]; Leukemia HL-60(I) (CL7008)) | classification of cell line as Low(1), Medium(2) or High(3) sensitivity to compound ([1]; Leukemia K562(I) CL7005) | classification of cell line as Low(1), Medium(2) or High(3) sensitivity to compound ([1]; Leukemia MOLT-4 (CL7006)) | classification of cell line as Low(1), Medium(2) or High(3) sensitivity to compound ([1]; Leukemia RPMI-8226(I) (CL7010)) | classification of cell line as Low(1), Medium(2) or High(3) sensitivity to compound ([1]; Leukemia SR CL7019) | classification of cell line as Low(1), Medium(2) or High(3) sensitivity to compound ([1]; Melanoma LOX IMVI CL10001) | classification of cell line as Low(1), Medium(2) or High(3) sensitivity to compound ([1]; Melanoma SK-MEL-5 (CL10007)) | sensitivity class NSCLC NCI-H23(I) CL1001 ([1]; cell line NSCLC NCI-H23(I), CL1001) | sensitivity class NSCLC NCI-H460 CL1021 ([1]; cell line NSCLC NCI-H460, CL1021) | sensitivity class NSCLC NCI-H522 CL1003 ([1]; cell line NSCLC NCI-H522, CL1003) | sensitivity class Ovarian IGROV1 CL6010 ([1]; cell line Ovarian IGROV1, CL6010) | sensitivity class Ovarian OVCAR-3 CL6001 ([1]; cell line Ovarian OVCAR-3, CL6001) | sensitivity class Ovarian OVCAR-8 CL6005 ([1]; cell line Ovarian OVCAR-8, CL6005) | sensitivity class Renal A498 CL9013 ([1]; cell line Renal A498, CL9013)
3.8: -Log (GI50) ([2]; Breast T-47D (CL5014))
